Measured values: patent US11052099B2, “Use of cimicifugae rhizoma triterpenoid saponin extract, actein, and deoxyactein” (BEIJING DITAN HOSPITAL, CAPITAL MEDICAL UNIVERSITY, priority 2017, dated 2021)

Assays:
[1] = system: ConA hepatitis mouse model; test: Survival rate of ConA hepatitis mouse model; format: in vivo, C57BL/6 mice; conditions: ConA 25 mg/kg i.v.; 96-hour observation; gavage, extract 15 mg/kg, actein and deoxyactein 5 mg/kg; model group 10%
Experimental: Test materials: ConA was purchased from Sigma; actein and deoxyactein were purchased from ChromaDex, USA.
(§1) Animal: C57BL/6 mice, purchased from Beijing Huafukang Biotechnology Co., Ltd.
Grouping: 40 C57BL/6 mice, male, 18-20 g, after 1 day of adaptive breeding, mice were randomly divided into 4 groups of 10 animals in each group: ConA model group, triterpenoid saponin group, actein group, and deoxyactein group.
Model preparation and drug administration: weighed 150 mg of ConA powder, dissolved it in 40 mL of sterile PBS, left it at room temperature for 1 to 2 hours, and continued to gently shake intermittently to mix well. Low temperature ultrasound was used to improve dissolution (no more than 5 min each time) and avoided excessive foaming. After it was fully dissolved, the volume was adjusted to 50 mL to a concentration of 3 mg/mL and filtered the solution under pressure with a 0.45 μm filter. Mice were given a single intravenous injection at 25 mg/kg, with 100 μL per mouse. Took 4 mg of actein and deoxyactein, added 10 ml of sterile double-distilled water to dissolve to a concentration of 0.4 mg/mL. […]

[2] = system: ConA hepatitis mouse model; test: Serum ALT and AST in ConA hepatitis mouse model; format: in vivo, C57BL/6 mice; conditions: serum 10 hours after ConA 15 mg/kg i.v.; gavage, extract 15 mg/kg, actein/deoxyactein 5 mg/kg; MEAN ± SEM
Experimental: The test materials and animals were the same as those in Experimental Example 1.
(§2) Grouping: C57BL/6 mice, male, 18-20 g, after 1 day of adaptive breeding, randomly divided into 5 groups: normal control group, ConA model group, triterpenoid saponin group, actein group and deoxyactein group.
(§3) Model preparation and drug administration: except the normal control group, mice were injected intravenously at a dose of ConA 15 mg/kg. The dosage of each group was the same as that of Experimental Example 1.
(1) The effects of drug administration in each group on serum ALT and AST of ConA mice were measured. Eight mice in each group were sacrificed under anesthesia 10 hours after ConA injection. Peripheral blood was taken, and serum was separated to detect ALT and AST.

[3] = system: ConA hepatitis mouse model; test: Liver pathological damage in ConA hepatitis mouse model (HE staining); format: in vivo, C57BL/6 mice; conditions: liver 10 hours after ConA 15 mg/kg; compared with the ConA group
Experimental: as §2, §3
(2) The effects of drug administration in each group on liver pathological damage in ConA mice were examined. Three mice in each group were sacrificed under anesthesia 10 hours after ConA injection. The left lobe of the liver was taken, cut into a size of about 5 mm3, and placed in 10% formalin solution, and dehydrated, transparently impregnated with wax, embedded, sliced, and spread, observed after staining;

[4] = system: serum cytokines TNF-α, IL-12, IL-6, MCP-1, IFN-γ; test: Serum inflammatory cytokine secretion in ConA mouse model; format: in vivo, C57BL/6 mice; conditions: MEAN ± SEM; for IL-6 / IL-12 / MCP-1 / TNF-α: serum 3 hours after ConA injection; for IFN-γ: serum 10 hours after ConA injection
Experimental: as §2, §3
(3) The effect of each group of drugs on serum cytokine secretion of ConA mice was examined. Six mice in each group. Peripheral blood was collected 3 hours after ConA injection and serum was separated to detect the secretion of cytokines TNF-α, IL-12, IL-6 and MCP-1. Serum was separated 10 hours after ConA injection to detect cell factor IFN-γ secretion.

[5] = system: mouse bone marrow-derived macrophages (BMDM); test: IL-12 and TNF-α secretion by LPS-stimulated macrophages (BMDM); format: cell-based, C57BL/6 mice; conditions: ELISA
Description: Test materials: LPS was purchased from Sigma; actein and deoxyactein were purchased from American ChromaDex; FBS was purchased from American PAA; DMEM high glucose medium; macrophage colony-stimulating factor (M-CSF) was purchased from PeproTech company; ELISA kit was purchased from BD company of the United States.
as §1
Isolation and culture of mouse bone marrow-derived macrophages (BMDM): after anesthesia of C57BL/6 mice, the mouses 2 pairs of femur and tibia were aseptically separated, and the bone marrow cells were flushed into a sterile flow tube using a 2 mL syringe with sterile PBS. Repeatedly pipetted into a bone marrow single cell suspension. After centrifugation, bone marrow cells were harvested, and 10 mL of complete medium containing 10% FBS, 1% glutamine, 1% double antibiotics (anti-penicillin, anti-streptomycin), and 10 ng/mL M-CSF were added to […] cell culture dish to culture at 37° C. After 4 days, the above fresh medium was changed, and macrophages with large volume, adherent growth, and mature differentiation were observed under the microscope on the 7th day. The cells were scraped off with a cell scraper, and repeatedly blown and mixed to form a single cell suspension, and then seeded in a 96-well plate at 1×10^5 cells/well.
BMDM cells induced activation and drug treatment: BMDM cells were treated with different doses of actein and deoxyactein, and 100 ng/mL LPS was given to stimulate cells 1 h later to simulate the activation of macrophages by bacterial infection. The cell supernatant was collected 4 hours later, and cytokine secretion was detected by ELISA.

CD45+CD3-NK1.1+ NK cells = test: IFN-γ expression in NK cells; format: cell-based, C57BL/6 mice; conditions: bone marrow cells; actein 62.5 ng/mL, deoxyactein 250 ng/mL; PMA + ionomycin 5 h; flow cytometry; PMA + ionomycin group 42.1 ± 2.7
Experimental: Test materials: CD45-PE, CD3-FITC, NK1.1-APC antibody, Intracellular Fixation & Permeabilization Buffer Set, and Cell Stimulation Cocktail were purchased from eBioscience.
as §1
Bone marrow single cell suspension preparation: after anesthesia of C57BL/6 mice, the 2 pairs of femur and tibia of the mouse were separated aseptically, the sterile bone marrow cells were pipetted into a sterile flow tube with a 2 mL syringe and sterile PBS to obtain bone marrow single cell suspension. After centrifugation, bone marrow cells were harvested, and 1.5 mL of complete medium containing 10% FBS, 1% glutamine, and 1% double antibiotics (anti-penicillin, anti-streptomycin) were added.
Intracellular staining after drug administration and NK cell induction activation: cells were treated with actein of intermediate concentration of 62.5 ng/mL and deoxyactein at a concentration of 250 ng/mL, and the cells were stimulated with Cell Stimulation Cocktail (containing PMA, ionomycin and protein transport inhibitors) for 5 h. Surface staining was performed with CD45-PE, CD3-FITC, NK1.1-APC antibodies, intracellular staining was performed with […] antibodies, and the percentage of positive cells expressing IFN-γ in CD45^+CD3^−NK1.1^+ NK cells was detected by flow cytometry.

[6] = system: CD45+CD3+NK1.1+ NKT cells; test: IFN-γ expression in NKT cells; format: cell-based, C57BL/6 mice; conditions: bone marrow cells; actein 62.5 ng/mL, deoxyactein 250 ng/mL; PMA + ionomycin 5 h; flow cytometry; PMA + ionomycin group 7.1 ± 0.7
Description: Test material: same as Experimental Example 9.
Animal: C57BL/6 mice, purchased from Beijing Huafukang Biotechnology Co., Ltd
Bone marrow single cell suspension preparation: same as Experimental Example 9.
Drug treatment and intracellular staining after NKT cell induction activation: same as Experimental Example 9. Flow cytometry was used to detect the percentage of positive cells expressing IFN-γ in CD45^+CD3^+NK1.1^+ NKT cells.

CD3+CD4+ T cells = test: IFN-γ expression in CD4+ T lymphocytes; format: cell-based, C57BL/6 mice; conditions: spleen cells; actein 62.5 ng/mL, deoxyactein 250 ng/mL; PMA + ionomycin 5 h; PMA + ionomycin group 3.8 ± 0.6
Experimental: (§4) Test materials: CD3-PE antibodies were purchased from BD Company in the United States, and CD4-FITC and CD8-PerCP antibodies were purchased from eBioscience Company; the remaining required reagents were the same as those in Experimental Example 9.
as §1
(§5) Preparation of spleen single cell suspension: after anesthesia of C57BL/6 mice, isolated the spleen of the mouse, placed the spleen in a sterile petri dish with 4 mL of PBEB added, grinded the spleen with a glass frosted surface, and filtered with a sterile 400 mesh filter. The spleen cells were placed in a flow tube, and the supernatant was discarded after centrifugation. After adding 2 mL of RBC Lysis Buffer to lyse at room temperature for 15 minutes, the supernatant was discarded by centrifugation to harvest the spleen cells. Then added 1.5 mL of complete medium containing 10% FBS, 1% glutamine, and 1% double antibiotics (anti-penicillin, anti-streptomycin), and mixed well by repeated pipetting.
(§6) Drug treatment and intracellular staining after T cell induction activation: cells were treated with 62.5 ng/mL actein and 250 ng/mL deoxyactein in a medium concentration, and Cell Stimulation Cocktail (containing PMA, ionomycin and protein transport inhibitor) was added to stimulate the cells for 5 h. […]

CD3+CD8+ T cells = test: IFN-γ expression in CD8+ T lymphocytes; format: cell-based, C57BL/6 mice; conditions: spleen cells; actein 62.5 ng/mL, deoxyactein 250 ng/mL; PMA + ionomycin 5 h; PMA + ionomycin group 14.5 ± 1.0
Experimental: as §4, §1, §5, §6

[7] = 2.5 ng/mL, LPS 100 ng/mL, 4 hours
[8] = 12.5 ng/mL, LPS 100 ng/mL, 4 hours
[9] = 62.5 ng/mL, LPS 100 ng/mL, 4 hours
[10] = 312.5 ng/mL, LPS 100 ng/mL, 4 hours
[11] = 25 ng/mL, LPS 100 ng/mL, 4 hours
[12] = 50 ng/mL, LPS 100 ng/mL, 4 hours
[13] = 125 ng/mL, LPS 100 ng/mL, 4 hours
[14] = 250 ng/mL, LPS 100 ng/mL, 4 hours
[15] = 500 ng/mL, LPS 100 ng/mL, 4 hours

Structure (SMILES) | survival rate [1] [%] | ALT [2] [U/L] | AST [2] [U/L] | liver pathological damage (HE staining, FIG. 2) [3] | IL-6 [4] [pg/mL] | IL-12 [4] [pg/mL] | MCP-1 [4] [pg/mL] | TNF-α [4] [pg/mL] | IFN-γ [4] [pg/mL] | IFN-γ+ (CD45+CD3-NK1.1+ NK cells) [%] | IFN-γ+ [6] [%] | IFN-γ+ (%), CD4+T cell (CD3+CD4+ T cells) [%] | IFN-γ+ (%), CD8+T cell (CD3+CD8+ T cells) [%] | also measured
CC(=O)O[C@@H]1C[C@@]23C[C@@]24CC[C@H](O[C@@H]2OC[C@@H](O)[C@H](O)[C@H]2O)C(C)(C)[C@@H]4CC[C@H]3[C@]2(C)C[C@@H]3O[C@]4(C[C@@H](C)[C@@H]3[C@@]12C)O[C@H](O)[C@@]1(C)O[C@@H]41 [Actein, actein] | 60 | 39.8 ± 11.1 | 212 ± 33 | large pieces of hepatocyte necrosis was significantly reduced and leukocyte infiltration was reduced | 792 ± 48 | 22 ± 1.9 | 1832 ± 209.7 | 173 ± 18.2 | 116.2 ± 34.8 | 33.0 ± 2.2 | 3.5 ± 0.6 | 3.1 ± 0.6 | 14.3 ± 0.7 | IL-12 ([5]; 0.5 ng/mL, LPS 100 ng/mL 1 h later, supernatant after 4 hours, LPS group 226.6 ± 26.6): 194.5 ± 22.3 pg/mL; TNF-α ([5]; 0.5 ng/mL, LPS 100 ng/mL 1 h later, supernatant after 4 hours, LPS group 2891 ± 57): 2555 ± 62.3 pg/mL; IL-12 [5, 7]: 136.3 ± 22.8 pg/mL; TNF-α [5, 7]: 2483 ± 77.3 pg/mL; IL-12 [5, 8]: 88.5 ± 10.6 pg/mL; TNF-α [5, 8]: 2327 ± 77.3 pg/mL; IL-12 [5, 9]: 48.2 ± 21.4 pg/mL; TNF-α [5, 9]: 2056 ± 49.2 pg/mL; IL-12 [5, 10]: 8 ± 0.8 pg/mL; TNF-α [5, 10]: 2062 ± 49 pg/mL
CC(=O)O[C@@H]1C[C@@]23C[C@@]24CC[C@H](O[C@@H]2OC[C@@H](O)[C@H](O)[C@H]2O)C(C)(C)[C@@H]4CC[C@H]3[C@]2(C)C[C@@H]3O[C@]4(C[C@@H](C)[C@@H]3[C@@]12C)OC[C@@]1(C)O[C@@H]41 [Deoxyactein, deoxyactein] | 40 | 144.4 ± 68.5 | 390.8 ± 98.2 | large pieces of hepatocyte necrosis was significantly reduced and leukocyte infiltration was reduced | 1406 ± 134.1 | 190.5 ± 22.5 | 4741 ± 665.7 | 394.4 ± 41.8 | 245.3 ± 56 | 29.5 ± 3.5 | 2.2 ± 0.4 | 2.0 ± 0.7 | 12.1 ± 1.3 | IL-12 [5, 11]: 244 ± 2.8 pg/mL; TNF-α [5, 11]: 2529 ± 121.3 pg/mL; IL-12 [5, 12]: 177.8 ± 12.5 pg/mL; TNF-α [5, 12]: 2321 ± 97.4 pg/mL; IL-12 [5, 13]: 142.3 ± 6.8 pg/mL; TNF-α [5, 13]: 2440 ± 84.8 pg/mL; IL-12 [5, 14]: 88.1 ± 22.3 pg/mL; TNF-α [5, 14]: 2305 ± 76.8 pg/mL; IL-12 [5, 15]: 42.2 ± 23.7 pg/mL; TNF-α [5, 15]: 2077 ± 43.8 pg/mL
